Laboratory results from patent publication US20220281848A1, “PYRAZOLE-SUBSTITUTED PYRROLIDINONES AS HERBICIDES” (FMC Corporation, priority 2019, published 2022).

System: plants
Assay: Test D pre-emergence, other plants of Tables D1 and D3
Type: in vivo
Details: pre-emergence, 100=total damage, 0=no damage
Protocol: A formulation containing 50 g/L of the test chemical was prepared by dissolving the active ingredient in a mixture of organic solvents and emulsifier, details of which are provided in the table. This formulation was then mixed with a small, variable amount of acetone to aid dissolution, before addition of a 0.2% v/v aqueous solution of an adjuvant, as the aqueous diluent, to form an aqueous spray solution which contains a predetermined concentration of the active ingredient.
This aqueous spray solution was then sprayed onto plants including maize and wheat that had been seed treated with a herbicide safener, after one day's cultivation (for pre-emergence) or after about 12 days' cultivation (for post-emergence). The plants were grown from seeds sown in standard soil, placed in a glasshouse under controlled conditions (at 24/18° C. or 20/16° C., day/night; 16 h light; 65% humidity). After spray application the plants were then grown in a glasshouse under the same conditions and watered twice daily. After 15 d for post-emergence and 20 DAA for pre-emergence the test was evaluated (100=total damage to plant; 0=no damage to plant).

CCn1nc([C@H]2CN(C)C(=O)[C@@H]2C(=O)Nc2cccc(F)c2F)c2ccc(F)cc21 [Compound 4]
damage to plant, BEAVA (rate 15, 20 DAA): 0
damage to plant, BROTE (rate 15, 20 DAA): 0
damage to plant, BRSNN (rate 15, 20 DAA): 0
damage to plant, CHEAL (rate 15, 20 DAA): 0
damage to plant, GALAP (rate 15, 20 DAA): 0
damage to plant, HORVW (rate 15, 20 DAA): 0
damage to plant, KCHSC (rate 15, 20 DAA): 0
damage to plant, LOLPE (rate 15, 20 DAA): 0
damage to plant, POAAN (rate 15, 20 DAA): 0
damage to plant, POLCO (rate 15, 20 DAA): 0
damage to plant, SINAR (rate 15, 20 DAA): 0
damage to plant, STEME (rate 15, 20 DAA): 0
damage to plant, VERPE (rate 15, 20 DAA): 0
damage to plant, ALOMY (rate 30, 20 DAA): 0
damage to plant, AVEFA (rate 30, 20 DAA): 0
damage to plant, BEAVA (rate 30, 20 DAA): 0
damage to plant, BROTE (rate 30, 20 DAA): 0
damage to plant, BRSNN (rate 30, 20 DAA): 0
damage to plant, CHEAL (rate 30, 20 DAA): 0
damage to plant, GALAP (rate 30, 20 DAA): 0
damage to plant, HORVW (rate 30, 20 DAA): 0
damage to plant, KCHSC (rate 30, 20 DAA): 0
damage to plant, LOLPE (rate 30, 20 DAA): 0
damage to plant, POAAN (rate 30, 20 DAA): 0
damage to plant, POLCO (rate 30, 20 DAA): 0
damage to plant, SINAR (rate 30, 20 DAA): 0
damage to plant, STEME (rate 30, 20 DAA): 0
damage to plant, VERPE (rate 30, 20 DAA): 0
damage to plant, ALOMY (rate 60, 20 DAA): 0
damage to plant, AVEFA (rate 60, 20 DAA): 0
damage to plant, BEAVA (rate 60, 20 DAA): 0
damage to plant, BROTE (rate 60, 20 DAA): 0
damage to plant, BRSNN (rate 60, 20 DAA): 0
damage to plant, CHEAL (rate 60, 20 DAA): 0
damage to plant, GALAP (rate 60, 20 DAA): 0
damage to plant, HORVW (rate 60, 20 DAA): 0
damage to plant, KCHSC (rate 60, 20 DAA): 0
damage to plant, LOLPE (rate 60, 20 DAA): 0
damage to plant, POAAN (rate 60, 20 DAA): 40
damage to plant, POLCO (rate 60, 20 DAA): 0
damage to plant, SINAR (rate 60, 20 DAA): 0
damage to plant, STEME (rate 60, 20 DAA): 0
damage to plant, VERPE (rate 60, 20 DAA): 0
damage to plant, ALOMY (rate 130, 20 DAA): 0
damage to plant, AVEFA (rate 130, 20 DAA): 0
damage to plant, BEAVA (rate 130, 20 DAA): 0
damage to plant, BROTE (rate 130, 20 DAA): 0
damage to plant, BRSNN (rate 130, 20 DAA): 0
damage to plant, CHEAL (rate 130, 20 DAA): 0
damage to plant, GALAP (rate 130, 20 DAA): 0
damage to plant, HORVW (rate 130, 20 DAA): 0
damage to plant, KCHSC (rate 130, 20 DAA): 0
damage to plant, LOLPE (rate 130, 20 DAA): 0
damage to plant, POAAN (rate 130, 20 DAA): 50
damage to plant, POLCO (rate 130, 20 DAA): 0
damage to plant, SINAR (rate 130, 20 DAA): 0
damage to plant, STEME (rate 130, 20 DAA): 0
damage to plant, VERPE (rate 130, 20 DAA): 0
damage to plant, ALOMY (rate 250, 20 DAA): 0
damage to plant, AVEFA (rate 250, 20 DAA): 0
damage to plant, BEAVA (rate 250, 20 DAA): 0
damage to plant, BROTE (rate 250, 20 DAA): 0
damage to plant, BRSNN (rate 250, 20 DAA): 0
damage to plant, CHEAL (rate 250, 20 DAA): 0
damage to plant, GALAP (rate 250, 20 DAA): 0
damage to plant, HORVW (rate 250, 20 DAA): 0
damage to plant, KCHSC (rate 250, 20 DAA): 0
damage to plant, LOLPE (rate 250, 20 DAA): 0
damage to plant, POAAN (rate 250, 20 DAA): 80
damage to plant, POLCO (rate 250, 20 DAA): 0
damage to plant, SINAR (rate 250, 20 DAA): 0
damage to plant, STEME (rate 250, 20 DAA): 0
damage to plant, VERPE (rate 250, 20 DAA): 0
damage to plant, ALOMY (rate 500, 20 DAA): 40
damage to plant, AVEFA (rate 500, 20 DAA): 10
damage to plant, BEAVA (rate 500, 20 DAA): 0
damage to plant, BROTE (rate 500, 20 DAA): 10
damage to plant, BRSNN (rate 500, 20 DAA): 10
damage to plant, CHEAL (rate 500, 20 DAA): 0
damage to plant, GALAP (rate 500, 20 DAA): 0
damage to plant, HORVW (rate 500, 20 DAA): 20
damage to plant, KCHSC (rate 500, 20 DAA): 0
damage to plant, LOLPE (rate 500, 20 DAA): 0
damage to plant, POAAN (rate 500, 20 DAA): 90
damage to plant, POLCO (rate 500, 20 DAA): 20
damage to plant, SINAR (rate 500, 20 DAA): 30
damage to plant, STEME (rate 500, 20 DAA): 0
damage to plant, VERPE (rate 500, 20 DAA): 0
